Laboratory results: the NIST ThermoML archive (doi:10.1016/j.fluid.2014.09.020)
Numbers after ± are expanded uncertainties.

Assay: mn = molality of the nth substance listed, in mol/kg
Conditions: 101 kPa, Liquid; for viscosity: Capillary tube (Ostwald / Ubbelohde) method; for electrical conductivity: Direct current cell with electrodes; for mass density: Vibrating tube method

CCCC[N+]1(C)CCCCC1.[Br-] [N-butyl-N-methylpiperidinium bromide] + O
Conditions | electrical conductivity [S/m] | mass density [kg/m3] | viscosity [mPa·s]
293.15 K, m1 = 0.25 | 1.58 ± 0.02 | 1008.15 ± 0.24 | 1.271 ± 0.016
293.15 K, m1 = 0.5006 | 2.29 ± 0.02 | 1017.18 ± 0.24 | 1.451 ± 0.018
293.15 K, m1 = 0.7499 | 2.83 ± 0.02 | 1025.78 ± 0.25 | 1.631 ± 0.02
293.15 K, m1 = 0.9999 | 3.23 ± 0.02 | 1034.01 ± 0.26 | 1.819 ± 0.023
293.15 K, m1 = 1.25 | 3.5 ± 0.02 | 1041.71 ± 0.26 | 2.004 ± 0.025
293.15 K, m1 = 1.5 | 3.66 ± 0.02 | 1049.03 ± 0.27 | 2.199 ± 0.027
293.15 K, m1 = 1.75 | 3.77 ± 0.02 | 1055.94 ± 0.27 | 2.422 ± 0.03
293.15 K, m1 = 2 | 3.83 ± 0.02 | 1062.38 ± 0.28 | 2.663 ± 0.033
293.15 K, m1 = 2.2 | 3.85 ± 0.02 | 1067.29 ± 0.28 | 2.863 ± 0.035
293.15 K, m1 = 2.4 | 3.87 ± 0.02 | 1071.91 ± 0.29 | 3.084 ± 0.038
298.15 K, m1 = 0.25 | 1.64 ± 0.02 | 1006.6 ± 0.23 | 1.114 ± 0.014
298.15 K, m1 = 0.5006 | 2.44 ± 0.02 | 1015.55 ± 0.24 | 1.283 ± 0.016
298.15 K, m1 = 0.7499 | 3.04 ± 0.02 | 1024.1 ± 0.25 | 1.442 ± 0.018
298.15 K, m1 = 0.9999 | 3.49 ± 0.02 | 1032.29 ± 0.25 | 1.598 ± 0.02
298.15 K, m1 = 1.25 | 3.78 ± 0.02 | 1039.86 ± 0.26 | 1.75 ± 0.022
298.15 K, m1 = 1.5 | 3.96 ± 0.02 | 1047.06 ± 0.27 | 1.907 ± 0.024
298.15 K, m1 = 1.75 | 4.08 ± 0.02 | 1053.87 ± 0.27 | 2.087 ± 0.026
298.15 K, m1 = 2 | 4.15 ± 0.02 | 1060.17 ± 0.28 | 2.287 ± 0.028
298.15 K, m1 = 2.2 | 4.17 ± 0.02 | 1064.99 ± 0.28 | 2.457 ± 0.03
298.15 K, m1 = 2.4 | 4.2 ± 0.02 | 1069.52 ± 0.28 | 2.649 ± 0.033
303.15 K, m1 = 0.25 | 1.77 ± 0.02 | 1004.71 ± 0.23 | 0.9885 ± 0.012
303.15 K, m1 = 0.5006 | 2.61 ± 0.02 | 1013.61 ± 0.24 | 1.133 ± 0.014
303.15 K, m1 = 0.7499 | 3.26 ± 0.02 | 1022.18 ± 0.25 | 1.266 ± 0.016
303.15 K, m1 = 0.9999 | 3.75 ± 0.02 | 1030.35 ± 0.25 | 1.394 ± 0.017
303.15 K, m1 = 1.25 | 4.09 ± 0.02 | 1037.65 ± 0.26 | 1.528 ± 0.019
303.15 K, m1 = 1.5 | 4.32 ± 0.02 | 1044.94 ± 0.26 | 1.67 ± 0.021
303.15 K, m1 = 1.75 | 4.48 ± 0.02 | 1051.69 ± 0.27 | 1.812 ± 0.022
303.15 K, m1 = 2 | 4.57 ± 0.02 | 1057.79 ± 0.27 | 1.972 ± 0.024
303.15 K, m1 = 2.2 | 4.6 ± 0.02 | 1062.59 ± 0.28 | 2.119 ± 0.026
303.15 K, m1 = 2.4 | 4.63 ± 0.02 | 1066.98 ± 0.28 | 2.279 ± 0.028
308.15 K, m1 = 0.25 | 1.86 ± 0.02 | 1002.93 ± 0.23 | 0.882 ± 0.011
308.15 K, m1 = 0.5006 | 2.77 ± 0.02 | 1011.89 ± 0.24 | 0.98 ± 0.012
308.15 K, m1 = 0.7499 | 3.47 ± 0.02 | 1020.33 ± 0.24 | 1.078 ± 0.013
308.15 K, m1 = 0.9999 | 4.01 ± 0.02 | 1028.69 ± 0.25 | 1.179 ± 0.015
308.15 K, m1 = 1.25 | 4.39 ± 0.02 | 1035.69 ± 0.26 | 1.282 ± 0.016
308.15 K, m1 = 1.5 | 4.64 ± 0.02 | 1043.08 ± 0.26 | 1.392 ± 0.017
308.15 K, m1 = 1.75 | 4.82 ± 0.02 | 1049.51 ± 0.27 | 1.511 ± 0.019
308.15 K, m1 = 2 | 4.92 ± 0.02 | 1055.41 ± 0.27 | 1.639 ± 0.02
308.15 K, m1 = 2.2 | 4.96 ± 0.02 | 1060.23 ± 0.28 | 1.749 ± 0.022
308.15 K, m1 = 2.4 | 4.99 ± 0.02 | 1064.28 ± 0.28 | 1.868 ± 0.023

CC[N+]1(C)CCCCC1.[Br-] [N-ethyl-N-methylpiperidinium bromide] + O
Conditions | electrical conductivity [S/m] | mass density [kg/m3] | viscosity [mPa·s]
293.15 K, m1 = 0.2501 | 1.67 ± 0.02 | 1009.34 ± 0.24 | 1.412 ± 0.018
293.15 K, m1 = 0.5 | 2.69 ± 0.02 | 1019.49 ± 0.24 | 1.432 ± 0.018
293.15 K, m1 = 0.75 | 3.46 ± 0.02 | 1029.24 ± 0.25 | 1.492 ± 0.018
293.15 K, m1 = 0.9992 | 4.01 ± 0.02 | 1038.65 ± 0.26 | 1.587 ± 0.02
293.15 K, m1 = 1.25 | 4.41 ± 0.02 | 1047.4 ± 0.27 | 1.707 ± 0.021
293.15 K, m1 = 1.5 | 4.68 ± 0.02 | 1055.5 ± 0.27 | 1.849 ± 0.023
293.15 K, m1 = 1.75 | 4.84 ± 0.02 | 1063.82 ± 0.28 | 2.021 ± 0.025
293.15 K, m1 = 1.998 | 4.94 ± 0.02 | 1071.67 ± 0.29 | 2.208 ± 0.027
293.15 K, m1 = 2.2 | 5.03 ± 0.02 | 1077.12 ± 0.29 | 2.361 ± 0.029
293.15 K, m1 = 2.4 | 5.12 ± 0.02 | 1082.45 ± 0.29 | 2.521 ± 0.031
298.15 K, m1 = 0.2501 | 1.94 ± 0.02 | 1007.59 ± 0.23 | 1.254 ± 0.016
298.15 K, m1 = 0.5 | 2.92 ± 0.02 | 1017.73 ± 0.24 | 1.274 ± 0.016
298.15 K, m1 = 0.75 | 3.72 ± 0.02 | 1027.52 ± 0.25 | 1.325 ± 0.017
298.15 K, m1 = 0.9992 | 4.36 ± 0.02 | 1036.99 ± 0.26 | 1.401 ± 0.017
298.15 K, m1 = 1.25 | 4.82 ± 0.02 | 1045.62 ± 0.27 | 1.516 ± 0.019
298.15 K, m1 = 1.5 | 5.14 ± 0.02 | 1053.61 ± 0.27 | 1.655 ± 0.021
298.15 K, m1 = 1.75 | 5.42 ± 0.02 | 1061.89 ± 0.28 | 1.787 ± 0.022
298.15 K, m1 = 1.998 | 5.61 ± 0.02 | 1069.59 ± 0.28 | 1.932 ± 0.024
298.15 K, m1 = 2.2 | 5.68 ± 0.02 | 1074.97 ± 0.29 | 2.069 ± 0.026
298.15 K, m1 = 2.4 | 5.73 ± 0.02 | 1080.2 ± 0.29 | 2.2 ± 0.027
303.15 K, m1 = 0.2501 | 2.02 ± 0.02 | 1005.68 ± 0.23 | 1.038 ± 0.013
303.15 K, m1 = 0.5 | 3.08 ± 0.02 | 1015.67 ± 0.24 | 1.091 ± 0.014
303.15 K, m1 = 0.75 | 3.95 ± 0.02 | 1025.8 ± 0.25 | 1.161 ± 0.015
303.15 K, m1 = 0.9992 | 4.65 ± 0.02 | 1034.64 ± 0.26 | 1.248 ± 0.016
303.15 K, m1 = 1.25 | 5.15 ± 0.02 | 1043.44 ± 0.26 | 1.349 ± 0.017
303.15 K, m1 = 1.5 | 5.5 ± 0.02 | 1051.59 ± 0.27 | 1.46 ± 0.018
303.15 K, m1 = 1.75 | 5.81 ± 0.02 | 1059.87 ± 0.28 | 1.583 ± 0.02
303.15 K, m1 = 1.998 | 6.02 ± 0.02 | 1067.36 ± 0.28 | 1.712 ± 0.021
303.15 K, m1 = 2.2 | 6.09 ± 0.02 | 1072.73 ± 0.29 | 1.82 ± 0.023
303.15 K, m1 = 2.4 | 6.15 ± 0.02 | 1077.82 ± 0.29 | 1.931 ± 0.024
308.15 K, m1 = 0.2501 | 2.24 ± 0.02 | 1003.67 ± 0.23 | 0.8791 ± 0.011
308.15 K, m1 = 0.5 | 3.29 ± 0.02 | 1013.78 ± 0.24 | 0.9294 ± 0.012
308.15 K, m1 = 0.75 | 4.2 ± 0.02 | 1023.78 ± 0.25 | 0.9953 ± 0.013
308.15 K, m1 = 0.9992 | 4.98 ± 0.02 | 1032.63 ± 0.25 | 1.074 ± 0.013
308.15 K, m1 = 1.25 | 5.54 ± 0.02 | 1041.4 ± 0.26 | 1.163 ± 0.015
308.15 K, m1 = 1.5 | 5.93 ± 0.02 | 1049.3 ± 0.27 | 1.26 ± 0.016
308.15 K, m1 = 1.75 | 6.34 ± 0.02 | 1057.7 ± 0.27 | 1.363 ± 0.017
308.15 K, m1 = 1.998 | 6.61 ± 0.02 | 1064.48 ± 0.28 | 1.469 ± 0.018
308.15 K, m1 = 2.2 | 6.66 ± 0.02 | 1070.15 ± 0.29 | 1.554 ± 0.019
308.15 K, m1 = 2.4 | 6.69 ± 0.02 | 1075.12 ± 0.29 | 1.639 ± 0.02
